Like-named read-outs stand apart in the source and are kept apart here.

One data set has as its target T1, Human CCR5 receptor (Homo sapiens, UniProt P51681).
T1 construct: expressed in transfected cells
The data set is described as follows: Human CCR5 receptor-ligand binding assay (125I chemokine displacement on CHO-Gα16-hCCR5 cells). The settings on record: RT 2 h. An excerpt: Human CCR5 Receptor-Ligand Binding Assay Protocol
Human CCR5 receptor (Genebank ID: 29169292) was cloned into mammalian expression vector, pTarget (Promega). The construct was transfected into CHO-Gα16 cells by using Fugene Reagent (Roche). Clones were selected under antibiotic pressure (G418 and Hygromycin) and sorted 4 times with a fluorescence activates cell sorter and a monoclonal antibody specific for CCR5 receptor (BD Biosciences Pharmigen, Mab 2D7, Cat. No. 555993). The clone with highest expression (100,000 copies per cell) was chosen for the binding assays.
Adherent cells in […] tissue culture flask (˜90% confluent) were harvested using 1 mM EDTA in PBS (phosphate-buffered saline) without Ca^2+ and Mg^2+. Cells were washed twice with PBS containing no Ca^2+ and Mg^2+. CHO-Gα16-hCCR5 cells were then resuspended (1×10^6/ml) in ice cold binding buffer (50 mM HEPES, 1 mM CaCl2, 5 mM MgCl2, 0.5% BSA, 0.05% NaN3, pH 7.24), pH 7.4), supplemented with freshly made 0.5% BSA and 0.05% NaN3.
Eighty μl CHO-Gα16-hCCR5 (1×10^6/ml) cells were added to 96 well plates. All dilutions were made in binding buffer (50 mM HEPES, 1 mM CaCl2, 5 mM MgCl2, 0.5% BSA, 0.05% NaN3, pH 7.24).
The plates were incubated on a cell shaker at RT for 2 h with a final concentration of 0.1 nM ^125I RANTES or ^125I MIP-1α or ^125I MIP-1β. The compound dilutions were made in PBS, 1% BSA. Total reaction volume was 100 μl per well. The test compounds were added to the cells prior to the addition of radioligand.
After incubation, the cells were harvested onto GF/C filter plates using Packard cell harvester. Filters were pretreated with 0.3% PEI/0.2% BSA for 30 min. The filter plate was washed rapidly 5 times with 25 mM HEPES, 500 mM NaCl, 1 mM CaCl2 and 5 mM MgCl2 adjusted to pH 7.1. Plates were dried in oven (70° C.) for 20 min, added with 40 μl scintillation fluid and sealed with Packard TopSeal-A. Packard Top Count was used to measure of the radioactivity for 1 min per well.
Total binding was determined with control wells added with radioisotope and buffer and the non-specific binding was determined using an excess cold RANTES to some of the control wells. Specific binding was determined by subtracting the non-specific form total binding. Results are expressed as the percentage of specific ^125I RANTES binding. IC50 values were determined using varying concentrations of the test ligand in triplicates and the data was analyzed using GraphPad Prism (GraphPad, San Diego, Calif.).

Where [1] appears, read: 0.1 nM 125I MIP-1β, read-out: Binding IC50 Mip-1b.
[2] abbreviates: 0.1 nM 125I RANTES, read-out: Binding IC50 RANTES.
[3] abbreviates: 0.1 nM 125I MIP-1α, read-out: Binding IC50 Mip-1a.

T1 sequence (P51681 whole entry): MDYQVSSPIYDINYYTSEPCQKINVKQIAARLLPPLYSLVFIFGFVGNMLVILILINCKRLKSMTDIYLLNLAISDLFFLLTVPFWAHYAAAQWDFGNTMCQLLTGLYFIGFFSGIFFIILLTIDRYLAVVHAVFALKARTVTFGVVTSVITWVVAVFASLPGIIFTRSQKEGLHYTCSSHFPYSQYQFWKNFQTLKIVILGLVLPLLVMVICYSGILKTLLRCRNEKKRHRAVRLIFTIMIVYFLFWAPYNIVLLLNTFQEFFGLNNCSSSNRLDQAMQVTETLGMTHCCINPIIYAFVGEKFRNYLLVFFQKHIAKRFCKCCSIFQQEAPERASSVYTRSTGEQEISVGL

In the case of “4-Butyl-8-[1-(2,6-dimethyl-benzoyl)-piperidin-4-yl]-3-(2-methyl-butyl)-1-oxa-3,8-diaza-spiro[4.5]decan-2-one; compound with trifluoro-acetic acid [Compound I-90]”, the IC50 at Human CCR5 receptor (setting [1]) was determined as 1.8 nM; at Human CCR5 receptor (setting [2]), 5.1 nM. Consider `CCCCC1N(CC2CCCCC2)C(=O)OC12CCN(C1CCN(C(=O)c3c(C)cccc3C)CC1)CC2` (stereo not shown) [Compound I-1, 4-Butyl-3-cyclohexylmethyl-8-[1-(2,6-dimethyl-benzoyl)-piperidin-4-yl]-1-oxa-3,8-diaza-spiro[4.5]decan-2-one], for which the IC50 on Human CCR5 receptor (setting [3]) was determined as 18 nM; on Human CCR5 receptor (setting [1]), 13 nM; on Human CCR5 receptor (setting [2]), 14 nM.

In turn, `CCCCN1C(=O)C([C@@H](O)C2CCCCC2)NC(=O)C12CCN(C1CCN(C(=O)c3c(C)cccc3C)CC1)CC2` (stereo partly drawn) [Compound I-76, 1-Butyl-3-((S)-cyclohexyl-hydroxy-methyl)-9-[1-(2,6-dimethyl-benzoyl)-piperidin-4-yl]-1,4,9-triaza-spiro[5.5]undecane-2,5-dione] displayed a melting point of 246.9 to 248 °C.

Turning to `CCCC[C@@H]1N(CC2CCCCC2)C(=O)OC12CCN(C1CCN(C(=O)c3c(C)cccc3C)CC1)CC2` [Compound I-159, (S)-4-Butyl-3-cyclohexylmethyl-8-[1-(2,6-dimethyl-benzoyl)-piperidin-4-yl]-1-oxa-3,8-diaza-spiro[4.5]decan-2-one], the values for the IC50 at Human CCR5 receptor (setting [3]), on Human CCR5 receptor (setting [1]) and on Human CCR5 receptor (setting [2]) were 4.5 nM, 10.5 nM and 5.1 nM, respectively. Take `CCCCC1N(CC2CCCCC2)C(=O)OC12CCN(C1(C)CCN(C(=O)c3c(C)ncnc3C)CC1)CC2` (stereo not shown) [Compound I-212, 4-Butyl-3-cyclohexylmethyl-8-[1-(4,6-dimethyl-pyrimidine-5-carbonyl)-4-methyl-piperidin-4-yl]-1-oxa-3,8-diaza-spiro[4.5]decan-2-one; compound with trifluoro-acetic acid]: at Human CCR5 receptor (setting [2]), the 50% inhibitory concentration (IC50) was 7.3 nM.

Take `CCCCC1N(CC2CCCCC2)C(=O)OC12CCN(C1(C)CCN(C(=O)c3c(C)nn(Cc4ccccc4)c3C)CC1)CC2` (stereo not shown) [Compound I-214, 8-[1-(1-Benzyl-3,5-dimethyl-1H-pyrazole-4-carbonyl)-4-methyl-piperidin-4-yl]-4-butyl-3-cyclohexylmethyl-1-oxa-3,8-diaza-spiro[4.5]decan-2-one; compound with trifluoro-acetic acid]: on Human CCR5 receptor (setting [2]), the IC50 came out at 8.2 nM. With `CCCCC1CN(CC2CCOCC2)C(=O)OC12CCN(C1(C)CCN(C(=O)c3c(C)ncnc3C)CC1)CC2` (stereo not shown) [Compound I-415, 5-Butyl-9-[1-(4,6-dimethyl-pyrimidine-5-carbonyl)-4-methyl-piperidin-4-yl]-3-(tetrahydro-pyran-4-ylmethyl)-1-oxa-3,9-diaza-spiro[5.5]undecan-2-one; compound with trifluoro-acetic acid], the half-inhibitory concentration (IC50) on Human CCR5 receptor (setting [1]) is less than 1.5 nM; at Human CCR5 receptor (setting [2]), 7.7 nM.

By IC50 is commonly meant the point on the concentration scale where inhibition reaches its midpoint. The melting point is the temperature, or range, at which the solid turns liquid.

The values above are taken from patent US7538122B2, “Heterocyclic antiviral compounds” (Roche Palo Alto LLC, priority 2004, dated 2009).
